# Results as given in patent US20120190615A1, “METHODS AND COMPOSITIONS FOR INDUCING WEIGHT LOSS” (Sanford-Burnham Medical Research Institute, priority 2011, published 2012).
# Experiments:
# [1] = cited from earlier work
# C57BL/6 mice = experiment: Single intraperitoneal OX injection, indirect calorimetry (CLAMS) and iBAT analysis; type: in vivo; details: single 30 mg kg−1 i.p. dose
# Experimental: One dose of 30 mg kg^−1 OX was administered intraperitoneally in a single dose to 6-8 week C57BL/6 mice, and metabolic rates and energy expenditure of those mice were then compared to 1 mg kg^−1 isoproterenol- or vehicle (PBS) control-injected mice. Isoproterenol is a beta-sympathomimetic and serves as a reference for Ucp1 expression and brown fat activity. Metabolic rates were measured by indirect calorimetry using the Comprehensive Lab Animal Monitoring System (CLAMS, Columbus Instruments). Food and water were available ad libitum. Mice were acclimatized to individual cages for 24 hours prior to recording, and then underwent 24 hours of monitoring.
# Increased energy expenditure was positively correlated with iBAT lipolysis, as evident from depletion of fat droplets. […] As a consequence, core body temperature was elevated by OX injection.
# [2] = tested on: C3H10T1/2 mesenchymal stem cells; experiment: Brown fat differentiation of C3H10T1/2 mesenchymal stem cells (Oil Red O, immunoblot, qRT-PCR, MitoTracker); type: cell-based, mouse
# Experimental: OXR1 expression was confirmed in the undifferentiated mesenchymal stem cell line C3H10T1/2 cells (ATCC). Cells were grown to 50-70% confluence in high glucose DMEM supplemented with 10% FBS and differentiated in standard induction media supplemented with 100 nM human orexin A (cat. No. 24470, Anaspec), vehicle, or recombinant human BMP-7 (cat. No. 4579, BioVision, a potent inducer of […] differentiation) for three days, at which time cells reached 100% confluence. Cells were then incubated in adipogenic media for 7 days in the absence of […]. Cells were then stained with Oil Red O according to the following protocol. Cells were washed twice with phosphate-buffered saline (PBS), fixed with 10% buffered formalin for 1 hour at room temperature, washed twice in PBS, stained for 30 minutes at room temperature with a filtered Oil red O (Sigma) solution (0.5% Oil red O in isopropyl alcohol), washed twice with PBS, and stored in PBS for visualization under the inverted microscope (Olympus).
# Following OX treatment, greater than 90% of cells differentiated from an elongated fibroblastic morphology to a spherical one typical of differentiated fat cells. OXR1 expression in the differentiated mesenchymal cells was done using RT-PCR analysis of the OXR1 mRNA. FIG. 4 provides the Ct value OXR1 and the Ct value for 18S RNA is shown for comparison.
# To determine triglyceride content, BAT was homogenized in 1 ml of saline solution and Triglycerides Reagent Kit (Pointe Scientific) was used to determine triglyceride concentration in the tissue.
# Protein extracts from the treated mesenchymal cells was used to assess the expression of early adipogenic transcription factors that are known to function in adipogenesis. Specifically, immunoblotting was used to assess the expression of C/ebp-alpha, Ppar-γ1, Prdm16, Pgc1-alpha, and Ucp1 in the differentiated mesenchymal stem cells.
# The expression of several adipogenic inhibitors was assessed in the differentiated mesenchymal stem cells and control cells by qRT-PCR. Undifferentiated C3H10T1/2 cells abundantly express Necdin, preadpocyte factor-1 (Pref-1), and Wnt10a, all of which inhibit early adipogenic events. Preadipocytes must counteract an adipogenic block imposed by these factors in order to differentiate. […] FIG. 6 illustrates results from a PCR analysis of adipogenic inhibitors in C3H10T1/2 cells treated with BMP-7 or OX for 3 days followed by adipogenic induction for 7 days. Data are expressed as arbitrary units after normalization to 18S RNA.
# The cultured mesenchymal stem cells were assessed for the expression of a variety of regulators of adipogenesis and mitochondrial function, qRT-PCR was performed as follows: RNA was isolated using Trizol lysis reagent (Qiagen) and purified by RNeasy Mini columns (Qiagen), cDNA was produced using an RT-PCR kit (Applied Biosystems) and primers synthesized by Integrated DNA Technologies, and PCR reactions were run in duplicate for each sample and quantified in the ABI Prism 7000 Sequence Detection System (Applied Biosystems) The expression of each RNA was normalized to the 18S RNA level.
# Important adipogenic regulators such as C/ebp. […] Mitochondiral transcription factor (Tfam), cytochrome oxidase (Cox7a, Cox8b) and deiodinase-2 expression were elevated before exposure to adipogenic media, as shown in FIG. 10. […] Expression of stearoyl-CoA desaturase (Scd), an enzyme catalyzing the rate-limiting step in lipid biosynthesis, was also elevated over 100-fold during differentiation. mRNAs encoding other markers fatty acid oxidation such as Lp1, Sirt3, Adam15-1 and Adam15-2, and Adipor1 were enriched in differentiated mesenchymal stem cells following OX treatment (FIG. 11).
# Based on the foregoing studies, three features distinguish BAT from WAT: the appearance of multilocular oil droplets, mitochondrial enrichment, and Ucp-1 expression. […]
# HIB1 cells = experiment: Differentiation of HIB1 brown preadipocytes (lipid accumulation, mitochondrial biogenesis); type: cell-based; details: 24 hours, absence of standard induction cocktail
# Experimental: To further investigate the role of OX in BAT differentiation, the effect of OX on the preadipocyte cell line HIB1 was evaluated. […] Expression of genes functioning in lipid metabolism and mitochondrial biogenesis was elevated while the anti-adipogenic factors […], Pref1, and Wnt10 were expressed at very low levels (FIG. 16).
# HIB1 cells were stably transfected with lentivirus over-expressing orexin (Len-OX) and compared to vector controls in the absence or presence of exogenous OX (100 nM), Cells were cultured for 7 days in the absence of differentiation medium and stained with Oil Red O. By day 6 of adipogenic differentiation, orexin-expressing cells had undergone normal BAT differentiation as scored by lipid accumulation.
# Brown fat morphological defects seen in both adult and newborn OXR1 KO mice were similar to those observed in OX KO mice. […] To examine the cellular and molecular consequences of OXR1 depletion, lentiviral vectors were used to express a short hairpin (sh) shRNA targeting OXR1 (shOXR1; Open Biosystems, Inc., catalog no. RMM4431-98766481) or a scrambled shRNA control (Open Biosystems, Inc., catalog no. RHS4346) in HIB1 mesenchymal cells. […] After 5 days of differentiation, cultures expressing the scrambled shRNA control had undergone brown fat differentiation as scored by Oil Red O staining and shown in FIG. 18. […]
substance,measurement,setting,value
"orexin-A (EPLPDCCRQKTCSCRLYELLHGAGNHAAGILTL) [OX, human orexin A, cat; No. 24470, Anaspec]",blood-brain barrier permeation,[1]; in contrast with orexin-B,blood-brain barrier permeant
same,liposolubility,[1]; versus orexin-B,higher liposolubility than orexin-B
same,stability,[1]; versus orexin-B,much more stable than Orexin-B
same,core body temperature,C57BL/6 mice,elevated
same,food consumption,C57BL/6 mice,increased food consumption
same,increase in whole-body energy expenditure,C57BL/6 mice,23-25%
same,oxygen consumption,C57BL/6 mice,stimulated oxygen consumption
same,physical activity,C57BL/6 mice,decreased physical activity
same,"prdm16, Pgc1-alpha, C/ebp-alpha, Dio2, Ucp-1 expression in BAT",C57BL/6 mice,induced
same,extent of iBAT lipolysis,C57BL/6 mice; isoproterenol 1 mg kg−1 reference,comparable to that induced by isoproterenol
same,cells differentiated from fibroblastic to spherical morphology typical of differentiated fat cells,"[2]; 100 nM OX 3 days, then adipogenic media 7 days",greater than 90%
same,mitochondrial biogenesis,[2]; MitoTracker staining,induced extensive mitochondrial biogenesis
same,"expression of stearoyl-CoA desaturase (Scd), elevation",[2]; during differentiation,over 100 fold
same,rate and extent of cytoplasmic triglyceride accumulation,[2]; following OX treatment,comparable to that seen following treatment with BMP-7
same,"expression of adipogenic transcription factors C/ebp-alpha, Ppar-γ1, Prdm16, Pgc1-alpha, Ucp1",[2]; immunoblotting,comparable to that induced by BMP-7
same,Ucp-1 and deiodinase type 2 mRNA expression,[2]; qRT-PCR,induced
same,"mRNAs encoding inhibitory factors Necdin, Preadipocyte factor-1, Wnt10a","[2]; qRT-PCR, 3 days treatment then 7 days adipogenic induction",suppression
same,Pref-1 expression,"[2]; qRT-PCR, normalized to 18S RNA",decreased by two orders of magnitude
same,"adipogenic regulators C/ebp, Prdm16, Ppar-gamma, Foxc2, Zfp423","[2]; qRT-PCR, prior to suppression of adipogenic inhibitors",significantly increased
same,lipid accumulation and mitochondrial biogenesis,HIB1 cells,induced extensive lipid accumulation and mitochondrial biogenesis
